The source of these data is patent US20250025443A1, “COMPOUNDS AND METHODS FOR TREATING CORONA VIRUSES” (CLEAR CREEK BIO, INC., priority 2021, published 2025).

Usually IC50 stands for the concentration that inhibits the measured activity by half.

The target of the first test is SARS-CoV-2 Papain-Like Protease (PLpro) (Severe acute respiratory syndrome coronavirus 2 (2019-nCoV) (SARS-CoV-2), UniProt P0DTD1). Kind of test: biochemical. The following applies: PLpro enzymatic fluorescence assay; class symbols; read-out: PLpro IC50.
Turning to `Cc1ccc(NC2CN(C(=O)OC(C)(C)C)C2)cc1C(=O)NC(C)c1cccc2c1CCCC2` (stereo not shown) [Compound 181], the concentration for half-maximal inhibition (IC50) is over 5000 nM.
`Cc1ccc(NC2CN(C(=O)OC(C)(C)C)C2)cc1C(=O)NC1(c2cccc(-c3ccccc3)c2)CC1` [Compound 188, tert-Butyl 3-((3-((1-([1,1′-biphenyl]-3-yl)cyclopropyl)carbamoyl)-4-methylphenyl)amino)azetidine-1-carboxylate]: the concentration for half-maximal inhibition (IC50) was over 5000 nM.

Still in this test, the particulars now being: SARS-CoV-2 PLpro enzymatic fluorescence assay; read-out: PLpro IC50.
As to `Cc1ccc(N)cc1C(=O)NC(c1cccc2ccccc12)C(F)(F)F` (stereo not shown) [Compound 183, 5-Amino-2-methyl-N-(2,2,2-trifluoro-1-(naphthalen-1-yl)ethyl)benzamide], the IC50 lay in the range of 1000 to 5000 nM.
As to `CN(Cc1ccc2[nH]ncc2c1)C1(c2cccc3ccccc23)CC1` [Compound 184, N-((1H-Indazol-5-yl)methyl)-N-methyl-1-(naphthalen-1-yl)cyclopropane amine], the IC50 was over 5000 nM.
Take `Cc1ccc(N)cc1C(=O)NC(c1cccc2ccccc12)C(F)F` (stereo not shown) [Compound 185, 5-Amino-N-(2,2-difluoro-1-(naphthalen-1-yl)ethyl)-2-methylbenzamide]: the IC50 is 1000 to 5000 nM.
Same read-out and setting: under `Cc1ccc(NC2CNC2)cc1C(=O)NC1(c2cccc(-c3ccc(CN4CCCC4)s3)c2)CC1` [Compound 186, 5-(Azetidin-3-ylamino)-2-methyl-N-(1-(3-(5-(pyrrolidin-1-ylmethyl)thiophen-2-yl)phenyl)cyclopropyl)benzamide] stands 100 to 1000 nM.
With `Cc1ccc(NC2CNC2)cc1C(=O)NC1(c2cccc(-c3ccccc3)c2)CC1` [Compound 187, N-(1-([1,1′-Biphenyl]-3-yl)cyclopropyl)-5-(azetidin-3-ylamino)-2-methylbenzamide], the IC50 was in the range of 1000 to 5000 nM.
For `Cc1cc2cc(CNC(=O)OC(C)(C)C)[nH]c2cc1C(=O)N[C@H](C)c1cccc2ccccc12` [Compound 189, (R)-tert-Butyl((5-methyl-6-((1-(naphthalen-1-yl)ethyl)carbamoyl)-1H-indol-2-yl)methyl)carbamate], the half-inhibitory concentration (IC50) was over 5000 nM.
In the case of `Cc1cc2c(cc1C(=O)NC1(c3cccc4ccccc34)CC1)NC(CN)C2` (stereo not shown) [Compound 190, 2-(Aminomethyl)-5-methyl-N-(1-(naphthalen-1-yl)cyclopropyl)indoline-6-carboxamide], the IC50 was under 100 nM.
On to `Cc1ccc(N)cc1C(=O)NC1(c2cccc3ccccc23)COC1` [Compound 191, 5-Amino-2-methyl-N-(3-(naphthalen-1-yl)oxetan-3-yl)benzamide], for which the IC50 was 100 to 1000 nM.
The same measure, in the same setting: then `Cc1cc2cc(CN(C)C)n(CO)c2cc1C(=O)N[C@H](C)c1cccc2ccccc12` [Compound 192, (R)-2-((Dimethylamino)methyl)-1-(hydroxymethyl)-5-methyl-N-(1-(naphthalen-1-yl)ethyl)-1H-indole-6-carboxamide], with 100 to 1000 nM.
Same read-out and setting: under `Cc1cc2c(cc1C(=O)NC1(c3cccc4ccccc34)CC1)N1C(=O)NCC1C2` (stereo not shown) [Compound 194, 7-Methyl-N-(1-(naphthalen-1-yl)cyclopropyl)-3-oxo-2,3,9,9a-tetrahydro-1H-imidazo[1,5-a]indole-6-carboxamide] stands 1000 to 5000 nM.
On the same count and under the same terms, under `Cc1ccc(N)cc1C(=O)NC(C#N)c1cccc2ccccc12` (stereo not shown) [Compound 195, 5-Amino-N-(cyano(naphthalen-1-yl)methyl)-2-methylbenzamide] stands over 5000 nM; under `Cc1ccc(NC2CNC2)cc1C(=O)NC1(c2cccc(-c3ccc(CN[C@H]4CC[C@@H](O)C4)s3)c2)CC1` [Compound 196, 5-(Azetidin-3-ylamino)-N-(1-(3-(5-((((1S,3R)-3-hydroxycyclopentyl)amino)methyl)thiophen-2-yl)phenyl)cyclopropyl)-2-methylbenzamide], 100 to 1000 nM; under `Cc1cc2cc(CN)oc2cc1C(=O)NC1(c2cccc3ccccc23)CC1` [Compound 197, 2-(Aminomethyl)-5-methyl-N-(1-(naphthalen-1-yl)cyclopropyl)benzofuran-6-carboxamide], under 100 nM.
As to `Cc1cc2cc(CN(C)C)oc2cc1C(=O)NC1(c2cccc3ccccc23)CC1` [Compound 198, 2-((Dimethylamino)methyl)-5-methyl-N-(1-(naphthalen-1-yl)cyclopropyl)benzofuran-6-carboxamide], the IC50 fell in the range of 100 to 1000 nM.
Consider `Cc1cc2cc[nH]c2cc1C(=O)NC1(c2cccc3ccccc23)CC1` [Compound 199, 5-Methyl-N-(1-(naphthalen-1-yl)cyclopropyl)-1H-indole-6-carboxamide], for which the IC50 was in the range of 100 to 1000 nM.
Take `Cc1ccc(N)cc1C(=O)NC(CF)c1cccc2ccccc12` (stereo not shown) [Compound 200, 5-Amino-N-(2-fluoro-1-(naphthalen-1-yl)ethyl)-2-methylbenzamide]: the half-inhibitory concentration (IC50) was 1000 to 5000 nM.
Same read-out and setting: under `Cc1cc2ccn(C)c2cc1C(=O)NC1(c2cccc3ccccc23)CC1` [Compound 201, 1,5-Dimethyl-N-(1-(naphthalen-1-yl)cyclopropyl)-1H-indole-6-carboxamide] stands 100 to 1000 nM.
As to `Cc1cc2cc(CCN)[nH]c2cc1C(=O)NC1(c2cccc3ccccc23)CC1` [Compound 202, 2-(2-Aminoethyl)-5-methyl-N-(1-(naphthalen-1-yl)cyclopropyl)-1H-indole-6-carboxamide], the IC50 was 100 to 1000 nM.
Consider `Cc1cc2ccn(CCN)c2cc1C(=O)NC1(c2cccc3ccccc23)CC1` [Compound 203, 1-(2-Aminoethyl)-5-methyl-N-(1-(naphthalen-1-yl)cyclopropyl)-1H-indole-6-carboxamide], for which the concentration for half-maximal inhibition (IC50) is 100 to 1000 nM.
On to `Cc1cc2cc(C(=O)O)[nH]c2cc1C(=O)NC1(c2cccc3ccccc23)CC1` [Compound 204, 5-Methyl-6-((1-(naphthalen-1-yl)cyclopropyl)carbamoyl)-1H-indole-2-carboxylic acid], for which the IC50 fell in the range of 100 to 1000 nM.
For the compound `Cc1cc2cc(C(N)=O)[nH]c2cc1C(=O)NC1(c2cccc3ccccc23)CC1` [Compound 205], the IC50 lay in the range of 100 to 1000 nM.
In the case of `Cc1cc2cc(CN3CCOCC3)[nH]c2cc1C(=O)N[C@H](C)c1cccc2ccccc12` [Compound 206, (R)-5-Methyl-2-(morpholinomethyl)-N-(1-(naphthalen-1-yl)ethyl)-1H-indole-6-carboxamide], the concentration for half-maximal inhibition (IC50) fell in the range of 1000 to 5000 nM.
On the same count and under the same terms, under `Cc1cc2c(cc1C(=O)NC1(c3cccc4ccccc34)CC1)NCC2` [Compound 207, 5-Methyl-N-(1-(naphthalen-1-yl)cyclopropyl)indoline-6-carboxamide] stands 100 to 1000 nM.
Regarding `Cc1cc2ccn(C)c2cc1C(=O)N(C)C1(c2cccc3ccccc23)CC1` [Compound 208, N,1,5-Trimethyl-N-(1-(naphthalen-1-yl)cyclopropyl)-1H-indole-6-carboxamide], the IC50 was over 5000 nM.
`Cc1ccc(OCCN2CCOCC2)cc1C(=O)NC1(c2cccc3ccccc23)CC1` [Compound 209, 2-Methyl-5-(2-morpholinoethoxy)-N-(1-(naphthalen-1-yl)cyclopropyl)benzamide]: the IC50 was 100 to 1000 nM.
`Cc1cc2c(cc1C(=O)NC1(c3cccc4ccccc34)CC1)N(C)CC2` [Compound 210, 1,5-Dimethyl-N-(1-(naphthalen-1-yl)cyclopropyl)indoline-6-carboxamide]: the IC50 lay within 100 to 1000 nM.
Still for that read-out and setting: under `Cc1ccc(OCCN)cc1C(=O)N(C)C1(c2cccc3ccccc23)CC1` [Compound 211, 5-(2-Aminoethoxy)-N,2-dimethyl-N-(1-(naphthalen-1-yl)cyclopropyl)benzamide] stands over 5000 nM.
Regarding `Cc1cc2c(C)c[nH]c2cc1C(=O)NC1(c2cccc3ccccc23)CC1` [Compound 212, 3,5-Dimethyl-N-(1-(naphthalen-1-yl)cyclopropyl)-1H-indole-6-carboxamide], the IC50 was in the range of 100 to 1000 nM.
As for `Cc1cc2cc(CN3CCOCC3)[nH]c2cc1C(=O)NC1(c2cccc3ccccc23)CC1` [Compound 213, 5-Methyl-2-(morpholinomethyl)-N-(1-(naphthalen-1-yl)cyclopropyl)-1H-indole-6-carboxamide], the IC50 lay in the range of 1000 to 5000 nM.
On the same count and under the same terms, under `Cc1ccc(OCCN(C)C)cc1C(=O)NC1(c2cccc3ccccc23)CC1` [Compound 214, 5-(2-(Dimethylamino)ethoxy)-2-methyl-N-(1-(naphthalen-1-yl)cyclopropyl)benzamide] stands under 100 nM; under `Cc1ccc(OCCN)cc1C(=O)NC1(c2cccc3ccccc23)CC1` [Compound 215, 5-(2-Aminoethoxy)-2-methyl-N-(1-(naphthalen-1-yl)cyclopropyl)benzamide], under 100 nM.
Same read-out and setting: under `Cc1cc(I)c(N)cc1C(=O)NC1(c2cccc3ccccc23)CC1` [Compound 216, 5-Amino-4-iodo-2-methyl-N-(1-(naphthalen-1-yl)cyclopropyl)benzamide] stands 100 to 1000 nM; under `Cc1cc(C#Cc2ccccc2)c(N)cc1C(=O)NC1(c2cccc3ccccc23)CC1` [Compound 217, 5-Amino-2-methyl-N-(1-(naphthalen-1-yl)cyclopropyl)-4-(phenylethynyl)benzamide], over 5000 nM; under `Cc1cc2ccn(C3CNC3)c2cc1C(=O)NC1(c2cccc3ccccc23)CC1` [Compound 218, 1-(Azetidin-3-yl)-5-methyl-N-(1-(naphthalen-1-yl)cyclopropyl)-1H-indole-6-carboxamide], under 100 nM.
Turning to `Cc1ccc(N)cc1C(=O)NC1(c2cccc3ccccc23)CCC1` [Compound 219, 5-Amino-2-methyl-N-(1-(naphthalen-1-yl)cyclobutyl)benzamide], the IC50 is over 5000 nM.
On to `CNCc1cc2cc(C)c(C(=O)NC3(c4cccc5ccccc45)CC3)cc2o1` [Compound 220, 5-Methyl-2-((methylamino)methyl)-N-(1-(naphthalen-1-yl)cyclopropyl)benzofuran-6-carboxamide], for which the IC50 is under 100 nM.
In the case of `CNCc1cc2cc(C)c(C(=O)NC3(c4cccc5ccccc45)CC3)cc2[nH]1` [Compound 221], the IC50 is under 100 nM.
On to `CNCCc1cc2cc(C)c(C(=O)NC3(c4cccc5ccccc45)CC3)cc2[nH]1` [Compound 222, 5-Methyl-2-(2-(methylamino)ethyl)-N-(1-(naphthalen-1-yl)cyclopropyl)-1H-indole-6-carboxamide], for which the concentration for half-maximal inhibition (IC50) was in the range of 100 to 1000 nM.
